Measured values published in the kinase profiling compilation of Christmann-Franck et al. (2016).

Tests used:
Experiment in all cases: radiometric filter-binding kinase assay
NTRK1 (human) = NTRK1 (human) (UniProt P04629); conditions: compound 10.0 µM
TAOK1 (human) = TAOK1 (human) (UniProt Q7L7X3)
ABL1 (human) = ABL1 (human) (UniProt P00519)
PDGFRA (human) = PDGFRA (human) (UniProt P16234)
MAPKAPK2 (human) = MAPKAPK2 (human) (UniProt P49137)
[1] = system: AKT2 (human), P31751 [S474D]
MARK2 (human) = MARK2 (human) (UniProt Q7KZI7)
CaMK1 (human) = CaMK1 (human) (UniProt Q14012)
IRAK1 (human) = IRAK1 (human) (UniProt P51617)
CSNK2A1 (human) = CSNK2A1 (human) (UniProt P68400)
EIF2AK3 (human) = EIF2AK3 (human) (UniProt Q9NZJ5)
DDR2 (human) = DDR2 (human) (UniProt Q16832)
SRC (human) = SRC (human) (UniProt P12931)
PIM1 (human) = PIM1 (human) (UniProt P11309)
DYRK3 (human) = DYRK3 (human) (UniProt O43781)
CAMKK2 (human) = CAMKK2 (human) (UniProt Q96RR4)
INSR (human) = INSR (human) (UniProt P06213)
EPHA2 (human) = EPHA2 (human) (UniProt P29317)
STK24 (human) = STK24 (human) (UniProt Q9Y6E0); conditions: compound 1.0 µM
STK11 (human) = STK11 (human) (UniProt Q15831)
MAPK3 (human) = MAPK3 (human) (UniProt P27361)
[2] = system: AKT1 (human), P31749 [S473D]
MAP3K11 (human) = MAP3K11 (human) (UniProt Q16584)
[3] = system: OXSR1 (human), O95747 [T185E]
EPHB1 (human) = EPHB1 (human) (UniProt P54762)
MST4 (human) = MST4 (human) (UniProt Q9P289)
MAPKAPK3 (human) = MAPKAPK3 (human) (UniProt Q16644)
MINK1 (human) = MINK1 (human) (UniProt Q8N4C8)
AURKB (human) = AURKB (human) (UniProt Q96GD4)
RPS6KA1 KD1 KD2 (human) = RPS6KA1 KD1 KD2 (human) (UniProt Q15418)
HIPK3 (human) = HIPK3 (human) (UniProt Q9H422); conditions: compound 1.0 µM
MAP2K1 (human) = MAP2K1 (human) (UniProt Q02750)

Chain of CAMKK2 (human) (Q96RR4 whole entry, looked up): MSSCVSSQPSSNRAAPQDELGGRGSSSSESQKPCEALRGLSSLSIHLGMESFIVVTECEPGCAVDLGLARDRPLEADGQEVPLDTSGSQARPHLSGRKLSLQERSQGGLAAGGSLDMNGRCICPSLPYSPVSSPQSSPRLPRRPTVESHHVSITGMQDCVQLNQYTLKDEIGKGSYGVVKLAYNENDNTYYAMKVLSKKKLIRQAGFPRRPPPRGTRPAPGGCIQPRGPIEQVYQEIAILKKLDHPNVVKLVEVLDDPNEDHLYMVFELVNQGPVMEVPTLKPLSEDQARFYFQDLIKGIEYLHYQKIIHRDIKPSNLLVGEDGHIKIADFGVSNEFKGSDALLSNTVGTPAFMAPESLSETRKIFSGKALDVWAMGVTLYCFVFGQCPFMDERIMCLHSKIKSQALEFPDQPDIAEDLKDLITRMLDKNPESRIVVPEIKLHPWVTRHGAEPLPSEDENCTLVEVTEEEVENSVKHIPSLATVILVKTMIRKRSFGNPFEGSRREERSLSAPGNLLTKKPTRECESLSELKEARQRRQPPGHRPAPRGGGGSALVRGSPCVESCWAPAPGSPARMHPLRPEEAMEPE
Chain of ABL1 (human) (P00519 whole entry, looked up): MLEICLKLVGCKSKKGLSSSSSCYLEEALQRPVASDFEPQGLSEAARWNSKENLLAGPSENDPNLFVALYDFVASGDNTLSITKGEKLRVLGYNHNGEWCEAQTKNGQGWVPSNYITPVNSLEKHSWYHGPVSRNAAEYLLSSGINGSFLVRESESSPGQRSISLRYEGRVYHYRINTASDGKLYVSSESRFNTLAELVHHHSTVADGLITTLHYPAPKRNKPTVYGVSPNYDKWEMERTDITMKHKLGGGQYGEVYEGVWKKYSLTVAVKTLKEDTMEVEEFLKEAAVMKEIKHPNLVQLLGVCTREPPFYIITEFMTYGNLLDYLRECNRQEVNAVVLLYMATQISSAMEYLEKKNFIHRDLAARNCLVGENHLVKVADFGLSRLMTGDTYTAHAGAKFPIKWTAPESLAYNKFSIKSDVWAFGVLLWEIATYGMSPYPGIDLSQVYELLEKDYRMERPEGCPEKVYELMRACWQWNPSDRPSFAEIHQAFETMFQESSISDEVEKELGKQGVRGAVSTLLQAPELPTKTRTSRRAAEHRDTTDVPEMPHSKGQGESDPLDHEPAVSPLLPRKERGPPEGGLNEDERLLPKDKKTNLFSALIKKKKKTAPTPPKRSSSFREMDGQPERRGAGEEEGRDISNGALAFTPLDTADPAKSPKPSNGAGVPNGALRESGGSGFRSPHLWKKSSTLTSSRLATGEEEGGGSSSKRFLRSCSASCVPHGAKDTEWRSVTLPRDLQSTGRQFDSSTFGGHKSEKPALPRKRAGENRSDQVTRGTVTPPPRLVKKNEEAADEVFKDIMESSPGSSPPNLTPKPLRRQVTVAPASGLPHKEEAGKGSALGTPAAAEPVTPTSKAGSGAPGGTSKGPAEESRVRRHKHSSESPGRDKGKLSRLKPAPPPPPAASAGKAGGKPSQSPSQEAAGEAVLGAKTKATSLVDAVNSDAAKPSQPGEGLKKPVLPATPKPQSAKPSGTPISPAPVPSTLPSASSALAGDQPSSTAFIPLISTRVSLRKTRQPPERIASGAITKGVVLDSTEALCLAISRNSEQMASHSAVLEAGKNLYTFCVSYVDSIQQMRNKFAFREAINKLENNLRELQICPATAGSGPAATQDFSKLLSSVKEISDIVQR
Chain of CSNK2A1 (human) (P68400 whole entry, looked up): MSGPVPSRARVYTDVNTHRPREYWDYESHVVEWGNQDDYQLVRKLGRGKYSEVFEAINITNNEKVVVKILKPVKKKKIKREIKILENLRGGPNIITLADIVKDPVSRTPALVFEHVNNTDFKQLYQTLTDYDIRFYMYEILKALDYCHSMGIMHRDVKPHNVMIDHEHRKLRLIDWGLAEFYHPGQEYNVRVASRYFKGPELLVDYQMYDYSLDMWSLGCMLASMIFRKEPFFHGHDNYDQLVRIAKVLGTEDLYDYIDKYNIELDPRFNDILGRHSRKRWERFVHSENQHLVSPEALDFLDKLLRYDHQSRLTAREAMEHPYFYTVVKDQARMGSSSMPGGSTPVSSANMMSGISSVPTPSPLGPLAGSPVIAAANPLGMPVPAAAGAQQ
Chain of AURKB (human) (Q96GD4 whole entry, looked up): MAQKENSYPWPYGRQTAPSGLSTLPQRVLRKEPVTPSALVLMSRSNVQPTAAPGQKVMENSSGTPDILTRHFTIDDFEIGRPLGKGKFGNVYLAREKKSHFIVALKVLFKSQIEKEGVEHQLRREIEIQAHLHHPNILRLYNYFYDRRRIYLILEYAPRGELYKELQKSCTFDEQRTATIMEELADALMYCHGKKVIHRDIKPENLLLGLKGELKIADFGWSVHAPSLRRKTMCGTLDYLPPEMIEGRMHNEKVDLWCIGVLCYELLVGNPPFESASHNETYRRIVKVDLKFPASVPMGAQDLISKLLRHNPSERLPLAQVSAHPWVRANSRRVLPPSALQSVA
Chain of EIF2AK3 (human) (Q9NZJ5 whole entry, looked up): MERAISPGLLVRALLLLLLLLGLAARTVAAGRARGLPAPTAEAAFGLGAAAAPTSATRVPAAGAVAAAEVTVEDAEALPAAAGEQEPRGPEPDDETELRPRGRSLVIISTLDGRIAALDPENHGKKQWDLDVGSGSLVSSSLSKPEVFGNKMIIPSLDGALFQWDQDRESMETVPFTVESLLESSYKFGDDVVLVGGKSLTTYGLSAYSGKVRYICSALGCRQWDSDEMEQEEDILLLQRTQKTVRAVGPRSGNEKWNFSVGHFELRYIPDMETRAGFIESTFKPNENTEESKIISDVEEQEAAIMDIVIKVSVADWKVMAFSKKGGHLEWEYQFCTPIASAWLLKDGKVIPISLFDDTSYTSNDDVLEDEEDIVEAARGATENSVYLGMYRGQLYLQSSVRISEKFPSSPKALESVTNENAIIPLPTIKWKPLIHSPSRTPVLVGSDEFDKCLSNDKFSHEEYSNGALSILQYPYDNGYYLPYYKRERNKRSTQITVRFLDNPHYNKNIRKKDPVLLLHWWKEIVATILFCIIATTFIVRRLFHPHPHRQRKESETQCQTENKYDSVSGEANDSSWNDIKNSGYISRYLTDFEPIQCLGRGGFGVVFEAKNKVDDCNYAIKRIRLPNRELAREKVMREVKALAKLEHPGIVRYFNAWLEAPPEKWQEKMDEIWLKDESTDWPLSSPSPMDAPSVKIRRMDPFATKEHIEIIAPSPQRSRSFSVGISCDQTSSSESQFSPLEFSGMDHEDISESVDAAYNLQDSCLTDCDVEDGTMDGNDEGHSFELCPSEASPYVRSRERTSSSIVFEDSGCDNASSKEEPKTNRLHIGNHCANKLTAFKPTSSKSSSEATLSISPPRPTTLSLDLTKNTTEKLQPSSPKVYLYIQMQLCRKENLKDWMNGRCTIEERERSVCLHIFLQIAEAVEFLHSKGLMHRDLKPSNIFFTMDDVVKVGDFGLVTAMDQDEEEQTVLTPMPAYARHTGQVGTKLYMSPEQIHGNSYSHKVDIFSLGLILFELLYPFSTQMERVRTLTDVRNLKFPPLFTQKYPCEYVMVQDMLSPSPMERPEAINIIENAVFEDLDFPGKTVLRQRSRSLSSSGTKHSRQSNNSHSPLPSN
Chain of MAPKAPK2 (human) (P49137 whole entry, looked up): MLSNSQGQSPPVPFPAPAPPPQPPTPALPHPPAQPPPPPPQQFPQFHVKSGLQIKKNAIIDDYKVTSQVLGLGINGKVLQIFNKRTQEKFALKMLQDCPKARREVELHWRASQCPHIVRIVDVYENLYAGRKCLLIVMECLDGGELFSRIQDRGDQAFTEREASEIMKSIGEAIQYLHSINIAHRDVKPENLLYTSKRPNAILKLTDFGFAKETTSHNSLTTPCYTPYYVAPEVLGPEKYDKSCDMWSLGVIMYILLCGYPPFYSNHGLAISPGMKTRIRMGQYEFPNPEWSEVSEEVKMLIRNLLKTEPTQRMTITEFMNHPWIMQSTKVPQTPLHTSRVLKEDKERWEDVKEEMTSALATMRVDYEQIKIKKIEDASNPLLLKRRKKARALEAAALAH
Chain of MAP3K11 (human) (Q16584 whole entry, looked up): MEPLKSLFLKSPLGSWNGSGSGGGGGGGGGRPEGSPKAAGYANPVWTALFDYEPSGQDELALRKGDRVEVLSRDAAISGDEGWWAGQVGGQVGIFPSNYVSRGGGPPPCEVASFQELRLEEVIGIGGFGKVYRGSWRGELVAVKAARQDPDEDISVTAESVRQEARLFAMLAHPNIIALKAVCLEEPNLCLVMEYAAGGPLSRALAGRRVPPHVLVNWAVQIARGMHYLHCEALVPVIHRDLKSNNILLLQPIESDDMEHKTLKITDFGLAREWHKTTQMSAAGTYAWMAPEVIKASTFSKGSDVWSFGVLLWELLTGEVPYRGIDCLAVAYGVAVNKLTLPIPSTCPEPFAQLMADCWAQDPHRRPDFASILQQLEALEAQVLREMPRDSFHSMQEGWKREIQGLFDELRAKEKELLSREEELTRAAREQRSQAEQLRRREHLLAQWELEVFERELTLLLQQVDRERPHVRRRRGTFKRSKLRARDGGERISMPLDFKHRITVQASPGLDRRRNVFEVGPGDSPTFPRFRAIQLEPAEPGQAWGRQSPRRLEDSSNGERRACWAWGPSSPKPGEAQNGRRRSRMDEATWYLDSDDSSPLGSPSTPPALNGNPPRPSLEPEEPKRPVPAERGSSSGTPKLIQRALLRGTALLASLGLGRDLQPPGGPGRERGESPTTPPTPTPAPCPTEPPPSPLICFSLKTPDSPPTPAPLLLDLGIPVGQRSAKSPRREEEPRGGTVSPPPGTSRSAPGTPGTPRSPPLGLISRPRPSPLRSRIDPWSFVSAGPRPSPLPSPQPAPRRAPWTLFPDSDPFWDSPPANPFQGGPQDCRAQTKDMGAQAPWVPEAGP

Compound `CNc1nc(Nc2ccc(C(=O)N3CCOCC3)cc2OC)ncc1Cl` has a residual activity (NTRK1 (human)) of 87%, a residual activity (TAOK1 (human); compound 1.0 µM) of 81% and a residual activity (TAOK1 (human); compound 10.0 µM) of 93%. The residual activity (ABL1 (human); compound 1.0 µM) was 84%, the residual activity (ABL1 (human); compound 10.0 µM) was 86% and the residual activity (PDGFRA (human); compound 1.0 µM) was 79%. For the same compound, the residual activity (PDGFRA (human); compound 10.0 µM) was 56%, the residual activity (MAPKAPK2 (human); compound 1.0 µM) was 88% and the residual activity (MAPKAPK2 (human); compound 10.0 µM) was 102%. It also gave a residual activity ([1]; compound 1.0 µM) of 95%, a residual activity ([1]; compound 10.0 µM) of 64% and a residual activity (MARK2 (human); compound 1.0 µM) of 85%. It also gave a residual activity (MARK2 (human); compound 10.0 µM) of 90%, a residual activity (CaMK1 (human); compound 1.0 µM) of 85% and a residual activity (CaMK1 (human); compound 10.0 µM) of 66%. It also gave a residual activity (IRAK1 (human); compound 1.0 µM) of 84%, a residual activity (IRAK1 (human); compound 10.0 µM) of 83% and a residual activity (CSNK2A1 (human); compound 1.0 µM) of 50%. For the same compound, the residual activity (CSNK2A1 (human); compound 10.0 µM) was 88%, the residual activity (EIF2AK3 (human); compound 1.0 µM) was 99% and the residual activity (EIF2AK3 (human); compound 10.0 µM) was 97%. For the same compound, the residual activity (DDR2 (human); compound 1.0 µM) was 103%, the residual activity (DDR2 (human); compound 10.0 µM) was 90% and the residual activity (SRC (human); compound 1.0 µM) was 84%. The residual activity (SRC (human); compound 10.0 µM) was 79%, the residual activity (PIM1 (human); compound 1.0 µM) was 96% and the residual activity (PIM1 (human); compound 10.0 µM) was 99%. The residual activity (DYRK3 (human); compound 1.0 µM) was 84%, the residual activity (DYRK3 (human); compound 10.0 µM) was 76% and the residual activity (CAMKK2 (human); compound 1.0 µM) was 52%. The residual activity (CAMKK2 (human); compound 10.0 µM) was 31%, the residual activity (INSR (human); compound 1.0 µM) was 86% and the residual activity (INSR (human); compound 10.0 µM) was 50%. The residual activity (EPHA2 (human); compound 1.0 µM) was 93%, the residual activity (EPHA2 (human); compound 10.0 µM) was 97% and the residual activity (STK24 (human)) was 83%. The residual activity (STK11 (human); compound 1.0 µM) was 92%, the residual activity (STK11 (human); compound 10.0 µM) was 90% and the residual activity (MAPK3 (human); compound 1.0 µM) was 95%. For the same compound, the residual activity (MAPK3 (human); compound 10.0 µM) was 104%, the residual activity ([2]; compound 1.0 µM) was 53% and the residual activity ([2]; compound 10.0 µM) was 85%. For the same compound, the residual activity (MAP3K11 (human); compound 1.0 µM) was 75%, the residual activity (MAP3K11 (human); compound 10.0 µM) was 43% and the residual activity ([3]; compound 1.0 µM) was 108%. It also gave a residual activity ([3]; compound 10.0 µM) of 82%, a residual activity (EPHB1 (human); compound 1.0 µM) of 115% and a residual activity (EPHB1 (human); compound 10.0 µM) of 86%. It also gave a residual activity (MST4 (human); compound 1.0 µM) of 101%, a residual activity (MST4 (human); compound 10.0 µM) of 106% and a residual activity (MAPKAPK3 (human); compound 1.0 µM) of 120%. The residual activity (MAPKAPK3 (human); compound 10.0 µM) was 81%, the residual activity (MINK1 (human); compound 1.0 µM) was 86% and the residual activity (MINK1 (human); compound 10.0 µM) was 96%. For the same compound, the residual activity (AURKB (human); compound 1.0 µM) was 83%, the residual activity (AURKB (human); compound 10.0 µM) was 42% and the residual activity (RPS6KA1 KD1 KD2 (human); compound 1.0 µM) was 87%. For the same compound, the residual activity (RPS6KA1 KD1 KD2 (human); compound 10.0 µM) was 54%, the residual activity (HIPK3 (human)) was 85% and the residual activity (MAP2K1 (human); compound 1.0 µM) was 106%. For the same compound, the residual activity (MAP2K1 (human); compound 10.0 µM) was 93%.
